This passage reports GI50 and TGI results from PubChem BioAssay (NCI).

Values joined by “and” are separate entries in the source; they are usually repeats but may differ in a detail not shown here. Equal values may be shown once.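 How tested: cells in 96-well plates exposed to compound for 48 hours at five concentrations. Here, GI50 denotes the concentration required for 50% inhibition of growth. At the TGI there is no net growth.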 Where only a bound is given, the exact number is not on record here.

The term GI50 denotes the concentration giving 50% growth inhibition. Usually TGI stands for the concentration at which net growth stops. Lower therefore signals greater sensitivity of the cells.

Some test systems named below: SK-OV-3 ovarian; SK-MEL-28 melanoma; 786-0 renal; NCI-H522 lung; HL-60(TB) leukemia; OVCAR-5 ovarian; SF-268 CNS; SF-539 CNS; K-562 leukemia; NCI-H23 lung.
Holding throughout (assay): DTP human tumour cell line panel, 48 h

As to `O=C(Nc1ccccc1C(F)(F)F)c1ccc(NC2=C(Cl)C(=O)N(Cc3ccccc3)C2=O)cc1`, the GI50 is 57.7 µM in the experiment on SK-OV-3 ovarian; > 100 µM in the experiment on SK-MEL-28 melanoma; 33.7 µM in the experiment with 786-0 renal; 40.3 µM in the experiment on NCI-H522 lung; 2.96 µM with HL-60(TB) leukemia; 58 µM in the experiment on OVCAR-5 ovarian. Further, the GI50 in the experiment on SF-268 CNS is 24.3 µM; in the experiment with SF-539 CNS, 23 µM; with K-562 leukemia, 5.65 µM; in the experiment with NCI-H23 lung it was 15.6 µM. Further, the concentration for total growth inhibition (TGI) in the experiment on SK-OV-3 ovarian is > 100 µM; in the experiment with SK-MEL-28 melanoma, > 100 µM; in the experiment with 786-0 renal it was > 100 µM; in the experiment on NCI-H522 lung, > 100 µM; in the experiment on HL-60(TB) leukemia, 17.6 µM; with OVCAR-5 ovarian, > 100 µM. For the same compound, the TGI in the experiment with SF-268 CNS came to 94.6 µM; in the experiment on SF-539 CNS, 59.5 µM; in the experiment on K-562 leukemia, 80.5 µM; in the experiment with NCI-H23 lung it was 34.2 µM.

As to `O=C(COc1ccc(OCC(=O)N2C(=O)CN(c3ccccc3)C2=S)cc1)N1C(=O)CN(c2ccccc2)C1=S`, the total growth inhibition concentration (TGI) with SK-OV-3 ovarian, in the experiment on SK-MEL-28 melanoma, in the experiment on 786-0 renal, with NCI-H522 lung, in the experiment on HL-60(TB) leukemia and in the experiment with OVCAR-5 ovarian was > 100 µM in each case. Besides, the TGI in the experiment with SF-268 CNS, in the experiment on SF-539 CNS, in the experiment with K-562 leukemia and with NCI-H23 lung was > 100 µM throughout. Besides, the GI50 with SK-MEL-28 melanoma, in the experiment on 786-0 renal, in the experiment on NCI-H522 lung, with OVCAR-5 ovarian, with K-562 leukemia and in the experiment on NCI-H23 lung was > 25 µM each time.

Turning to `Cc1ccc(/C=C/c2c(C(=O)/C=C/c3ccc(Cl)cc3)c(C)nc3ccccc23)cc1`, the GI50 in the experiment on SK-OV-3 ovarian was 3.74 µM; in the experiment with SK-MEL-28 melanoma, 1.84 µM; in the experiment with 786-0 renal, 1.6 µM; in the experiment on NCI-H522 lung it was 1.86 µM; in the experiment with HL-60(TB) leukemia, 2.12 µM; in the experiment on OVCAR-5 ovarian, 2.16 µM. The GI50 in the experiment on SF-268 CNS is 2.15 µM; with SF-539 CNS it was 1.81 µM; with K-562 leukemia, 2.63 µM; in the experiment with NCI-H23 lung, 1.38 µM. The TGI in the experiment on SK-OV-3 ovarian came out at 15.7 µM; with SK-MEL-28 melanoma, 3.41 µM; in the experiment with 786-0 renal, 3.2 µM; in the experiment on NCI-H522 lung, 5.94 µM; in the experiment with HL-60(TB) leukemia, 5.76 µM; with OVCAR-5 ovarian, 5.86 µM. Further, the total growth inhibition concentration (TGI) in the experiment with SF-268 CNS is 5.85 µM; with SF-539 CNS it was 3.3 µM; with K-562 leukemia, > 100 µM; with NCI-H23 lung, 3.22 µM.

`COc1cccc(/C=C/c2ccnc3ccccc23)c1OC`: the TGI in the experiment on SK-OV-3 ovarian, with SK-MEL-28 melanoma, in the experiment on 786-0 renal, in the experiment with NCI-H522 lung, with HL-60(TB) leukemia and in the experiment on OVCAR-5 ovarian was > 10 µM in each case. Besides, the total growth inhibition concentration (TGI) with SF-268 CNS, in the experiment on SF-539 CNS, in the experiment on K-562 leukemia and in the experiment on NCI-H23 lung was > 10 µM each time.

Consider `O=c1c2ccccc2nc(-c2ccccc2Cl)n1-c1nnc(C(F)(F)F)s1`, for which the GI50 was 4.01 µM in the experiment with SK-OV-3 ovarian; 4.63 µM in the experiment on SK-MEL-28 melanoma; 3.18 µM with 786-0 renal; 2.43 µM with NCI-H522 lung; 2.38 µM in the experiment on HL-60(TB) leukemia; 4.33 µM in the experiment with OVCAR-5 ovarian. The GI50 with SF-268 CNS was 4.36 µM; in the experiment with SF-539 CNS it was 3.21 µM; in the experiment with K-562 leukemia, 3.77 µM; in the experiment on NCI-H23 lung, 3.23 µM. Besides, the TGI in the experiment on SK-OV-3 ovarian was determined as 39 µM; in the experiment with SK-MEL-28 melanoma, 90.9 µM; with 786-0 renal, 11.4 µM; in the experiment on NCI-H522 lung it was 8.25 µM; with HL-60(TB) leukemia it was 8.51 µM; in the experiment with OVCAR-5 ovarian it was 43.8 µM. The TGI was > 100 µM in the experiment on SF-268 CNS, 13 µM in the experiment with SF-539 CNS, > 100 µM in the experiment with K-562 leukemia and 17.3 µM in the experiment with NCI-H23 lung.

With `Nc1cc(C(F)(F)F)c(-c2cc(N3CCOCC3)nc(N3CCOCC3)n2)cn1`, the GI50 is 0.235 µM and 0.654 µM in the experiment on SK-OV-3 ovarian; 0.555 µM and 0.536 µM in the experiment with SK-MEL-28 melanoma; 1.65 µM and 2.1 µM in the experiment with 786-0 renal; 0.504 µM and 0.29 µM in the experiment with NCI-H522 lung; 0.615 µM and 0.455 µM with HL-60(TB) leukemia; 0.692 µM and 0.848 µM in the experiment on OVCAR-5 ovarian. In addition, the GI50 is 0.925 µM and 1.42 µM with SF-268 CNS; 0.976 µM and 1.39 µM in the experiment with SF-539 CNS; 0.875 µM and 0.58 µM in the experiment with K-562 leukemia; 1.17 µM and 1.28 µM with NCI-H23 lung. In addition, the TGI is 1.58 µM and 2.94 µM in the experiment with SK-OV-3 ovarian; 5.14 µM and 4.38 µM with SK-MEL-28 melanoma; 9.77 µM and 8.63 µM with 786-0 renal; 3.93 µM and 1.64 µM in the experiment with NCI-H522 lung; 5.45 µM and 9.35 µM in the experiment with HL-60(TB) leukemia; 7.16 µM and 8.7 µM with OVCAR-5 ovarian. The concentration for total growth inhibition (TGI) was > 9.53 µM and 7.1 µM in the experiment on SF-268 CNS; 3.42 µM and 4.35 µM in the experiment on SF-539 CNS; > 100 µM in the experiment on K-562 leukemia; > 84.6 µM in the experiment with NCI-H23 lung.

Consider `CC(=O)[CH-]C(=O)c1ccccc1.CC(=O)[CH-]C(=O)c1ccccc1.CC(C)CCC[C@H](C)C1CCC2[C@@H]3CC=C4C[C@@H]([O-])CC[C@]4(C)C3CC[C@@]21C.CC(C)CCC[C@H](C)C1CCC2[C@@H]3CC=C4C[C@@H]([O-])CC[C@]4(C)C3CC[C@@]21C.Cl.[Ti+4]` (stereo partly specified), for which the GI50 was > 25 µM with SK-OV-3 ovarian; > 25 µM with SK-MEL-28 melanoma; > 25 µM in the experiment on 786-0 renal; > 25 µM in the experiment with NCI-H522 lung; 13.7 µM in the experiment on HL-60(TB) leukemia; > 25 µM with OVCAR-5 ovarian. Moreover, the GI50 in the experiment on SF-268 CNS, in the experiment on SF-539 CNS, with K-562 leukemia and with NCI-H23 lung was > 25 µM throughout. Moreover, the total growth inhibition concentration (TGI) in the experiment on SK-OV-3 ovarian, with SK-MEL-28 melanoma, in the experiment with 786-0 renal, in the experiment with NCI-H522 lung, in the experiment with HL-60(TB) leukemia and with OVCAR-5 ovarian was > 25 µM each time. The TGI in the experiment with SF-268 CNS, in the experiment with SF-539 CNS, in the experiment on K-562 leukemia and in the experiment with NCI-H23 lung was > 25 µM throughout.

Take `COc1cc(/C=C/C(=O)N2CCC=CC2=O)cc(OC)c1OC`: the GI50 is 13.8 µM in the experiment on SK-OV-3 ovarian; 2.21 µM with SK-MEL-28 melanoma; 2.41 µM with 786-0 renal; 1.8 µM in the experiment on NCI-H522 lung; 1.91 µM with HL-60(TB) leukemia; 2.77 µM in the experiment with OVCAR-5 ovarian. Moreover, the GI50 is 3.2 µM in the experiment on SF-268 CNS, 1.82 µM with SF-539 CNS, 2.98 µM in the experiment on K-562 leukemia and 1.81 µM with NCI-H23 lung. Also, the TGI in the experiment with SK-OV-3 ovarian came to 27.3 µM; in the experiment with SK-MEL-28 melanoma it was 5.53 µM; with 786-0 renal, 7.03 µM; in the experiment on NCI-H522 lung, 3.75 µM; in the experiment with HL-60(TB) leukemia it was 5.28 µM; with OVCAR-5 ovarian, 8.68 µM. In addition, the TGI was 12.6 µM with SF-268 CNS, 4.47 µM in the experiment with SF-539 CNS, > 100 µM in the experiment on K-562 leukemia and 4.03 µM in the experiment on NCI-H23 lung.
